Measurements as given in US5856435A, “Nucleic acid-containing composition, its preparation and use” (Rhone-Poulenc Rorer SA, priority 1994, dated 1999).
In brackets after ≈: the same amount, converted by molar mass. Residues, ends and D or L forms follow the SMILES beside them.

Tests used:
[1] = Encapsulation of the nucleic acid INV-Val13 in nanoparticles of PLA50(30)-PEG(2)
Excerpt: The nanoparticles used in this example are diblock copolymers consisting of a poly(D,L-lactic acid) linked via an ester bond to a poly(ethylene glycol): PLAp(M)-PEG(N) where M and N are, respectively, the average molecular masses (in kD) of the PLA and the PEG, and p is the percentage of L-lactic acid. The 2 types of nanoparticles used are PLA50(30)-PEG(2) and PLA50(30)-PEG(5). These copolymers may be synthesized by any technique known to a person skilled in the art (see, for example, EP 520,889).
The nucleic acids were treated with phage T4 polynucleotide kinase (Biolabs) in the presence of [γ-^32 P]ATP (Amersham) in a kinase buffer. After 30 min of incubation at 37° C., the nucleic acid was separated from unreacted ATP by application to a Sephadex G25 column (Quick Spin) and centrifugation.
This Example describes the encapsulation of the nucleic acid INV-Val13 in a nanoparticle of PLA50 (30)-PEG(2) in the presence or absence of oligopeptide (LKKL)10 (SEQ ID NO:6).
The polymer used, (PLA50(30)-PEG(2)), was solubilized in 1 ml of acetone at a concentration of 10 g/l. The isotopic dilution of the nucleic acid (final concentration 10^-5 M) was added, followed by the oligopeptide (at a concentration such that R=1). The organic solution obtained was then poured dropwise into 5 ml of an aqueous solution (50 mM Tris-HCl buffer pH 7.4) with stirring. […]

[2] = test system: T24/EJ cell line originating from a human bladder carcinoma; assay: Transfer of nucleic acid into cells: inhibition of cell proliferation induced by the antisense nucleic acid; format: cell-based; details: naked, 30 μM, 72 or 96 hours of culture
Method: The tests of nucleic acid transfer described in this example were performed on a cell line originating from a human bladder carcinoma, designated T24/EJ, available in the ATCC. The cells were cultured in MEM-EAGLE medium ("minimum essential medium", Biological Industries) supplemented with L-glutamine ((5 mM), streptomycin (50 u/ml) and penicillin (50 u/ml) in the presence of 7% of foetal calf serum decomplemented for 30 min at 60° C.
The cells (1500/well) were inoculated into 96-well microplates, in the absence or presence of nucleic acid, encapsulated or otherwise in nanoparticles, in a total volume of 100 μl. Each point was performed in triplicate. […]
In the first place, the incorporation of tritiated thymidine, which was determined after adding 2 μCi of 3 H thymidine per well. After 6 hours of incubation in an incubator, the plates were washed with a Skatron apparatus (Lier, Norway), the DNA was collected on a filter and each disc of the filter (corresponding to each well of the plate) was placed in scintillation fluid and then counted in a counter (LKB Wallac 1211 Minibeta). […]
Next, cell proliferation was evaluated by counting the cells in a Malassez cell. For this purpose, the supernatant was removed, the cells were trypsinized (10 min at 37° C.) and culture medium was added to them before they were counted.

[3] = study of the dichroic spectra: secondary structures adopted by the cationic oligopeptides; format: physicochemical
Excerpt: The capacity of the oligopeptides to form secondary structures may be verified by circular dichroism or in NMR, as shown in the examples.
Moreover, as shown in the Table below, a study of the dichroic spectra enabled the secondary structures adopted by the cationic oligopeptides used, in solution or after complexing, to be confirmed.

physchem = details: water
[4] = solubility of the oligopeptide in water
[5] = 50 mM phosphate buffer/0.2 M NaCl

Compound | secondary structure (dichroic spectra) ([3]; 50 mM phosphate buffer) | secondary structure (dichroic spectra) [3, 5] | secondary structure (dichroic spectra) ([3]; Water/nucleic acid) | conformation in saline solution [3] | conformation in water ([3]; water) | secondary structure (dichroic spectra) ([3]; water) | further results
3'-CACACCGACGGCG-5' (chemistry not given here; listed 3' to 5') [INV-Val13] | – | – | – | – | – | – | encapsulation yield of INV-Val13 in the nanoparticle ([1]; in the presence of oligopeptide (LKKL)10, R=1, nucleic acid 10^-5 M): 56%; encapsulation yield of INV-Val13 in the nanoparticle ([1]; without the oligopeptide, nucleic acid 10^-5 M): 5%
3'-CGCGGCAGCCAC-5' (chemistry not given here; listed 3' to 5') [AS-Val12] | – | – | – | – | – | – | inhibition of cell proliferation [2]: 42%
CC(C)C[C@H](NC(=O)[C@H](CCCCN)NC(=O)[C@H](CCCCN)NC(=O)[C@H](CC(C)C)NC(=O)[C@H](CC(C)C)NC(=O)[C@H](CCCCN)NC(=O)[C@H](CCCCN)NC(=O)[C@H](CC(C)C)NC(=O)[C@H](CC(C)C)NC(=O)[C@H](CCCCN)NC(=O)[C@H](CCCCN)NC(=O)[C@H](CC(C)C)NC(=O)[C@H](CC(C)C)NC(=O)[C@H](CCCCN)NC(=O)[C@H](CCCCN)NC(=O)[C@H](CC(C)C)NC(=O)[C@H](CC(C)C)NC(=O)[C@H](CCCCN)NC(=O)[C@H](CCCCN)NC(=O)[C@H](CC(C)C)NC(=O)[C@H](CC(C)C)NC(=O)[C@H](CCCCN)NC(=O)[C@H](CCCCN)NC(=O)[C@H](CC(C)C)NC(=O)[C@H](CC(C)C)NC(=O)[C@H](CCCCN)NC(=O)[C@H](CCCCN)NC(=O)[C@H](CC(C)C)NC(=O)[C@H](CC(C)C)NC(=O)[C@H](CCCCN)NC(=O)[C@H](CCCCN)NC(=O)[C@H](CC(C)C)NC(=O)[C@H](CC(C)C)NC(=O)[C@H](CCCCN)NC(=O)[C@H](CCCCN)NC(=O)[C@H](CC(C)C)NC(=O)[C@H](CC(C)C)NC(=O)[C@H](CCCCN)NC(=O)[C@H](CCCCN)NC(=O)[C@@H](N)CC(C)C)C(=O)O [(LKKL)10, (H)-(Leucine-Lysine-Lysine-Leucine)10 -(OH)] (H-LKKLLKKLLKKLLKKLLKKLLKKLLKKLLKKLLKKLLKKL-OH) | α Helix | α Helix | α Helix | α-helical | unstructured | unstructured | solubility (physchem): 50 mg/mL (≈ 10.3 mM)
Polylysine [reference compound] | – | – | – | not structured | – | – | –

Further lines, with some results ahead:

secondary structure (dichroic spectra) ([3]; 50 mM phosphate buffer) | secondary structure (dichroic spectra) [3, 5] | secondary structure (dichroic spectra) ([3]; Water/nucleic acid) | conformation in saline solution [3] | conformation in water ([3]; water) | secondary structure (dichroic spectra) ([3]; water) | Compound | further results
β Sheet | β Sheet | β Sheet | β-sheet | unstructured | unstructured | CC(C)C[C@H](NC(=O)[C@H](CCCCN)NC(=O)[C@H](CC(C)C)NC(=O)[C@H](CCCCN)NC(=O)[C@H](CC(C)C)NC(=O)[C@H](CCCCN)NC(=O)[C@H](CC(C)C)NC(=O)[C@H](CCCCN)NC(=O)[C@H](CC(C)C)NC(=O)[C@H](CCCCN)NC(=O)[C@H](CC(C)C)NC(=O)[C@H](CCCCN)NC(=O)[C@H](CC(C)C)NC(=O)[C@H](CCCCN)NC(=O)[C@H](CC(C)C)NC(=O)[C@H](CCCCN)NC(=O)[C@H](CC(C)C)NC(=O)[C@H](CCCCN)NC(=O)[C@H](CC(C)C)NC(=O)[C@H](CCCCN)NC(=O)[C@H](CC(C)C)NC(=O)[C@H](CCCCN)NC(=O)[C@H](CC(C)C)NC(=O)[C@H](CCCCN)NC(=O)[C@H](CC(C)C)NC(=O)[C@H](CCCCN)NC(=O)[C@H](CC(C)C)NC(=O)[C@H](CCCCN)NC(=O)[C@H](CC(C)C)NC(=O)[C@H](CCCCN)NC(=O)[C@H](CC(C)C)NC(=O)[C@H](CCCCN)NC(=O)[C@H](CC(C)C)NC(=O)[C@H](CCCCN)NC(=O)[C@H](CC(C)C)NC(=O)[C@H](CCCCN)NC(=O)[C@H](CC(C)C)NC(=O)[C@H](CCCCN)NC(=O)[C@@H](N)CC(C)C)C(=O)N[C@@H](CCCCN)C(=O)O [(LKLK)10, (H)-(Leucine-Lysine-Leucine-Lysine)10 -(OH)] (H-LKLKLKLKLKLKLKLKLKLKLKLKLKLKLKLKLKLKLKLK-OH) | solubility [4]: 100 mg/mL (≈ 20.6 mM)
unstructured | unstructured | unstructured | not structured | – | unstructured | CC(C)C[C@H](NC(=O)[C@H](CCCCN)NC(=O)[C@H](CCCCN)NC(=O)[C@@H]1CCCN1C(=O)[C@H](CC(C)C)NC(=O)[C@H](CCCCN)NC(=O)[C@H](CCCCN)NC(=O)[C@@H]1CCCN1C(=O)[C@H](CC(C)C)NC(=O)[C@H](CCCCN)NC(=O)[C@H](CCCCN)NC(=O)[C@@H]1CCCN1C(=O)[C@H](CC(C)C)NC(=O)[C@H](CCCCN)NC(=O)[C@H](CCCCN)NC(=O)[C@@H]1CCCN1C(=O)[C@H](CC(C)C)NC(=O)[C@H](CCCCN)NC(=O)[C@H](CCCCN)NC(=O)[C@@H]1CCCN1C(=O)[C@H](CC(C)C)NC(=O)[C@H](CCCCN)NC(=O)[C@H](CCCCN)NC(=O)[C@@H]1CCCN1C(=O)[C@H](CC(C)C)NC(=O)[C@H](CCCCN)NC(=O)[C@H](CCCCN)NC(=O)[C@@H]1CCCN1C(=O)[C@H](CC(C)C)NC(=O)[C@H](CCCCN)NC(=O)[C@H](CCCCN)NC(=O)[C@@H]1CCCN1C(=O)[C@H](CC(C)C)NC(=O)[C@H](CCCCN)NC(=O)[C@H](CCCCN)NC(=O)[C@@H]1CCCN1C(=O)[C@H](CC(C)C)NC(=O)[C@H](CCCCN)NC(=O)[C@H](CCCCN)NC(=O)[C@@H]1CCCN1)C(=O)O [(PKKL)10, (H)-(Proline-Lysine-Lysine-Leucine)10 -(OH), reference compound] (H-PKKLPKKLPKKLPKKLPKKLPKKLPKKLPKKLPKKLPKKL-OH) | –
